The source made the active and inactive calls. No rule for the calls is given here.
Tested on: CCRIS mutagenicity, Ames/micronucleus/aberration tests
Assay: CCRIS mutagenicity studies
Settings: Test System: AMES SALMONELLA TYPHIMURIUM
[1] = Strain/Indicator: TA98, Metabolic Activation: NONE, Method: PREINCUBATION
[2] = Strain/Indicator: TA98, Metabolic Activation: RAT, LIVER, S-9, AROCLOR 1254, Method: PREINCUBATION
[3] = Strain/Indicator: TA100, Metabolic Activation: NONE, Method: PREINCUBATION
[4] = Strain/Indicator: TA100, Metabolic Activation: RAT, LIVER, S-9, AROCLOR 1254, Method: PREINCUBATION
[5] = Strain/Indicator: TA100, Metabolic Activation: NONE, Method: STANDARD PLATE

CC(=O)Nc1ccc(Oc2ccc(N(O)C(C)=O)cc2)cc1
mutagenic call (Strain/Indicator: TA98(1,8-DNP6), Metabolic Activation: NONE, Method: PREINCUBATION): active; positive
mutagenic call (Strain/Indicator: TA98(1,8-DNP6), Metabolic Activation: RAT, LIVER, S-9, AROCLOR 1254, Method: PREINCUBATION): active; positive
mutagenic call (Strain/Indicator: TA98(NR), Metabolic Activation: NONE, Method: PREINCUBATION): active; positive
mutagenic call (Strain/Indicator: TA98(NR), Metabolic Activation: RAT, LIVER, S-9, AROCLOR 1254, Method: PREINCUBATION): active; positive
mutagenic call [1]: active; positive
mutagenic call [2]: active; positive
mutagenic call (Strain/Indicator: TA100(NR), Metabolic Activation: NONE, Method: PREINCUBATION): active; positive
mutagenic call (Strain/Indicator: TA100(NR), Metabolic Activation: RAT, LIVER, S-9, AROCLOR 1254, Method: PREINCUBATION): active; positive
mutagenic call [3]: active; positive
mutagenic call [4]: active; positive

CS(C)(=O)=O
mutagenic call [1]: inactive; negative
mutagenic call [2]: inactive; negative
mutagenic call [3]: inactive; negative
mutagenic call [4]: inactive; negative
mutagenic call (Strain/Indicator: TA102, Metabolic Activation: NONE, Method: PREINCUBATION): inactive; negative
mutagenic call (Strain/Indicator: TA102, Metabolic Activation: RAT, LIVER, S-9, AROCLOR 1254, Method: PREINCUBATION): inactive; negative

C=C1C(=O)[C@]23CCC4[C@](C)(CCC[C@@]4(C)C(=O)O)C2CC[C@@]1(O)C3 (stereo partly drawn)
mutagenic call (Strain/Indicator: TM677, Metabolic Activation: NONE, Method: PREINCUBATION): active; positive

CN(C)CCCn1cc[n+](C)c1/C=N/O
mutagenic call (Strain/Indicator: TA97, Metabolic Activation: NONE, Method: STANDARD PLATE): inactive; negative
mutagenic call (Strain/Indicator: TA97, Metabolic Activation: RAT, LIVER, S-9, Method: STANDARD PLATE): inactive; negative
mutagenic call [5]: inactive; negative
mutagenic call (Strain/Indicator: TA100, Metabolic Activation: RAT, LIVER, S-9, Method: STANDARD PLATE): inactive; negative
mutagenic call (Strain/Indicator: TA104, Metabolic Activation: NONE, Method: STANDARD PLATE): inactive; negative
mutagenic call (Strain/Indicator: TA104, Metabolic Activation: RAT, LIVER, S-9, Method: STANDARD PLATE): inactive; negative
mutagenic call (Strain/Indicator: TA1537, Metabolic Activation: NONE, Method: STANDARD PLATE): inactive; negative
mutagenic call (Strain/Indicator: TA1537, Metabolic Activation: RAT, LIVER, S-9, Method: STANDARD PLATE): inactive; negative
mutagenic call (Strain/Indicator: TA1538, Metabolic Activation: NONE, Method: STANDARD PLATE): inactive; negative
mutagenic call (Strain/Indicator: TA1538, Metabolic Activation: RAT, LIVER, S-9, Method: STANDARD PLATE): inactive; negative

O=C(OCC1CCC2OC2C1)C1CCC2OC2C1 (stereo not drawn)
mutagenic call (Strain/Indicator: TA97A, Metabolic Activation: NONE, Method: STANDARD PLATE): inactive; negative
mutagenic call (Strain/Indicator: TA97A, Metabolic Activation: RAT LIVER S-9, PHENOBARBITAL AND BETA-NAPHTHOFLAVONE (10%), Method: STANDARD PLATE): inactive; negative
mutagenic call (Strain/Indicator: TA98, Metabolic Activation: NONE, Method: STANDARD PLATE): inactive; negative
mutagenic call (Strain/Indicator: TA98, Metabolic Activation: RAT LIVER S-9, PHENOBARBITAL AND BETA-NAPHTHOFLAVONE (10%), Method: STANDARD PLATE): inactive; negative
mutagenic call [5]: inactive; negative
mutagenic call (Strain/Indicator: TA100, Metabolic Activation: RAT LIVER S-9, PHENOBARBITAL AND BETA-NAPHTHOFLAVONE (10%), Method: STANDARD PLATE): active; positive
mutagenic call (Strain/Indicator: TA102, Metabolic Activation: NONE, Method: STANDARD PLATE): inactive; negative
mutagenic call (Strain/Indicator: TA102, Metabolic Activation: RAT LIVER S-9, PHENOBARBITAL AND BETA-NAPHTHOFLAVONE (10%), Method: STANDARD PLATE): inactive; negative

Fc1ccc(CN2C3c4ccccc4-c4ccccc4C32)cc1 (stereo not drawn)
mutagenic call [5]: active; positive

O=CNc1ccc(Oc2ccccc2)cc1
mutagenic call [5]: inactive; negative
mutagenic call (Strain/Indicator: TA100, Metabolic Activation: RAT, LIVER, S-9, KANECLOR 500, Method: STANDARD PLATE): active; positive

Source: PubChem BioAssay AID1259407 (Chemical Carcinogenesis Research Information System (CCRIS), 2018)
